Entries after “also recorded” stand apart in the source; their conditions may differ.

The test system of series [1] is renal fibrosis, adenine-induced CKD mice. Nature of the series: renal fibrosis in adenine CKD mice (trichrome, immunoblot, RT-qPCR). Format: in vivo, mouse. The following applies: adenine diet; SK-124 40 mg/kg oral. As to the method:
FIGS. 3A-3C. SK-124 treatment reduces fibrosis in adenine-induced chronic kidney disease. (A) Representative trichrome stained sections from the indicated groups. Darker staining indicates fibrosis which is increased in vehicle-treated adenine diet mice and reduced by SK-124 treatment. (B) Kidney protein lysates were isolated and analyzed by immunoblotting for alpha-smooth muscle actin (αSMA) (top) and GAPDH (bottom). (C) Whole kidney RNA from the indicated groups was analyzed by RT-qPCR for the indicated fibrosis marker.
(§1) 7-week-old female CD1 mice were obtained from Charles River Laboratories (Wilmington, MA) and were fed on 0.2% adenine containing diet (TD.130900; 0.2% Adenine, 0.9% Phosphate, 0.5% Calcium; Envigo) or control diet (TD. 96348) for 6 or 8 weeks to induce chronic kidney disease (CKD). Mice were oral gavaged with 40 mg/kg SK-124, or intraperitonially injected with 80 μg/kg PTH, or treated with vehicle 5 days a week for the duration of the special diet.
(§2) cDNA was prepared using Primescript RT kit (Takara Inc), with 750 ng RNA per reaction. RT-qPCR was performed by using PerfeCa® SYBR® Green FAstMix® ROX (Quanta bio) in the StepOnePlus™ Real-time PCR System (Applied Biosystems). Hmbs was used as a control housekeeping gene for mouse samples, and B-Actin was used for organoids, relative expression was calculated (2^-deltaCT method) and compared to the mean of control group if necessary. Primers used for RT-qPCR are listed in Table 2 (mouse primers) and Table 3 (human primers).
(§3) Snap-frozen kidneys were homogenized in NP-40 lysis buffer (FNN0021, Thermo) with using TissueLyserII at 30 Hz for 5 minutes. Samples were rotated at 4 deg for 20 minutes and frozen on dry ice and thawed. After centrifuging for 30 minutes at 4 deg, the supernatants were collected. After determining the protein concentration by Bradford assay, […] of protein was loaded for western blotting. For KGli cells, the cells were washed with cold PBS then scraped into TNT buffer (Tris-NaCl-Tween buffer, 20 mM Tris-HCl pH 8, 200 mM NaCl, 0.5% Triton X-100 containing 1X-protease inhibitor cocktail (Bimake Inc. 100X, Cat. #B14001), 1 mM DTT, 1 mM NaF, 1 mM Vanadate (New England Biolabs)). Next, samples were vortexed for 1 minute and centrifuged at 14,000g for 6 minutes at 4 deg, and the supernatant was collected.
(§4) For immunoblotting, the lysates were separated by SDS-PAGE (Bio-rad precast gels), and proteins were transferred to the nitrocellulose membranes. Then, the membranes were blocked in 5% milk in tris-buffered saline plus 0.05% Tween-20 (TBST) and incubated with primary antibody in 5% BSA-TBST overnight at 4° C. Next day, after washing, membranes were incubated with anti-rabbit HRP-coupled secondary antibody (1:2500, Cell Signaling Technology, 7074S) or anti-mouse HRP-coupled secondary antibody (1:2500, Cell Signaling, 7076S), and signals were detected with SuperSignal West Femto Maximum Sensitivity Substrate (Thermo scientific) using the iBright imager (ThermoFisher). The antibodies used are: SIK2 (1:1000, Cell Signaling, 6919), GAPDH (1:1000, Cell Signaling, 2118), αSMA (1:1000, Invitrogen, 14-9760-82), pSMAD3 (1:1000, Cell Signaling, 9520), and SMAD⅔ (1:1000, Cell Signaling, 8685).
Hematoxylin and eosin (H+E) staining was performed on some sections using standard protocols and Masson's Trichome stain for fibrosis was performed according to the manufacturer's instructions (ab150686, abcam). Formalin-fixed paraffin embedded sections were also used for in situ hybridization according to the manufacturer instructions (ACDbio). Briefly, the sections were blocked with hydrogen peroxide for 10 minutes at room temperature, followed by antigen retrieval with Pepsin (R2283, Sigma-Aldrich) in humidified chamber in 40° C. HybEZ oven. The Sik1 (526411, ACD), Sik2 (526421, ACD), or Sik3 (526431, ACD) probe was added to the sections for 2 hours in the humidified chamber at 40° C. Then, the signal was amplified (322310, ACD) and detected using Brown DAB kit (322310, ACD). […]
For orientation: A western blot detects proteins with antibodies after separation by electrophoresis.

Series [2] has as its system SIK isoforms (Sik1, SIK2, Sik3). The series can be described thus: SIK isoform expression in kidneys of adenine diet mice (immunoblot, RT-qPCR, RNAscope). Type of series: in vivo, mouse. The protocol:
FIGS. 2A-2C. SIK isoform expression in adenine-induced chronic kidney disease. (A) Kidney protein lysates were isolated and analyzed by imnunoblotting for SIK2 (top) and GAPDH (bottom). SIK2 protein levels are increased in adenine diet. (B) Whole kidney RNA from the indicated groups was analyzed by RT-qPCR for the indicated SIK isoform. (C) Kidney sections from control and CKD (6 weeks adenine diet) were stained using RNAscope (darker shade) for the indicated SIK isoform.
as §2, §3
as §4, with “The antibodies used are: SIK2 (1:1000, Cell Signaling, 6919), GAPDH (1:1000, Cell Signaling, 2118), αSMA (1:1000, Invitrogen, 14-9760-82), pSMAD3 (1:1000, Cell Signaling, 9520), and SMAD⅔ (1:1000, Cell Signaling, 8685).” left out
Hematoxylin and eosin (H+E) staining was performed on some sections using standard protocols and Masson's Trichome stain for fibrosis was performed according to the manufacturer's instructions (ab150686, abcam). […] Then, the signal was amplified (322310, ACD) and detected using Brown DAB kit (322310, ACD).

The subject of series [3] is whole kidney transcriptome. Nature of the series: bulk RNA-sequencing of whole kidney, adenine CKD mice. Type of series: in vivo, mouse. To be noted: bulk RNA-seq; adenine vs control diet, or SK-124 vs vehicle in CKD mice. As to the method: FIGS. 6A-6F. The effects of SK-124 treatment at the transcriptomic level in adenine-induced mouse chronic kidney disease. RNA-seq was performed on whole kidney RNA samples (n=7/group) from FIG. 1. Volcano plot show gene regulated (>2-fold change, p(adj)<0.05) by CKD (versus control diet, A) or in CKD by SK-124 (versus vehicle control, B). In Volcano plot, representative fibrosis markers (Col3a1, Vim, Serpinel) and proximal tubule integrity (Lrp2. Atplai, and Hnf4a) are shown. Scatterplot (C) and heatmap (D) showing integration of individual RNA-seq comparisons. […] (E) Single cell RNA-sequencing was performed on dissociated kidneys from adenine diet fed mice treated with vehicle or SK-124 (n=4/group). […] (F) Relative cellularity of each annotated cluster is shown in pie chart format for adenine+vehicle (CKD-Veh) or adenine+SK-124 (CKD-SK-124) mice.
Isolated RNA samples from the mouse adenine diet study and human kidney organoid experiment were submitted to Novogene and bulk-RNA sequencing on NovaSeq X Plus Ilumina Novoseq Platform. Sequencing reads were mapped to the mouse reference genome (mm10/GRCm38) or human reference genome (GRCh38/hg38) using Salmon and differential gene expression analysis was performed using DESeq2.

Another series concerns human kidney organoids. Nature of the series: cisplatin injury of human kidney organoids: immunostaining, organoid size. Type of series: cell-based. The following applies: intermittent cisplatin, 5 treatments. The protocol: FIG. 7. SK-124 preserves human kidney organoid integrity in cisplatin injury model. Human kidney organoids derived from H9 embryonic stem cells were treated with intermittent cisplatin (5 separate treatments) based on published protocols along with the indicated agent. Organoids were cryo-sectioned and immuno-stained with the indicated markers. The top panels show low power images and the bottom panels focus on regions of proximal tubule cells. The graph measures the mean diameter of organoids in the control (no cisplatin), cisplatin+DMSO, and cisplatin+SK-124 treatment groups.
BJFF human induced pluripotent stem cells (hPSCs) were maintained on Geltrexcoated (Thermo Fisher Scientific) plates using StemFit Basic04 Complete (Ajinomoto Co. Inc.) as previously reported(25). The cells were passaged weekly using Accutase (STEMCELL Technologies) for dissociation and Y27632 (Tocris) for adhesion. Directed differentiation of hPSCs into kidney organoids has been published elsewhere (29). Briefly, hPSCs were differentiated into metanephric mesenchyme cells on day 8 by a three-step directed differentiation protocol. Metanephric mesenchyme was transferred into suspension culture in 96-well ultralow adhesion plates (Coming) and further differentiated into kidney organoids, as previously reported(25). Quality control measures of SIX2 immunostaining on day 8 of differentiation and CDH1, LTL, PODXL, CD146, MEIS1/2/3, and SYTOX-blue staining on day 21 were performed on all batches of kidney organoids to limit batch-to-batch heterogeneity. Kidney organoids were maintained in 200 μl of basal media consisting of Advanced RPMI (Thermo Fisher Scientific) and GlutaMAX (Thermo Fisher Scientific) in 96-well plates, as previously reported. Media changes were conducted three times weekly with removal of 90 [l and addition of 100 μl of fresh basal media.
For cisplatin induced injury, day 49 organoids were treated with 5 μM cisplatin in basal media after full media change. After 24 hours, full media exchanges were performed. This 24-hour treatment was performed twice a week, on day 52-53, day 56-57, day 59-60, and day 63-64 as well, for a total of five cisplatin treatments. Samples were obtained for RT-qPCR and immunostaining immediately following each 24-hour treatment with cisplatin, and from corresponding controls.
Following the treatment, the organoids were collected and immediately fixed in 4% PFA in PBS for 1 hour at room temperature, submerged in 30% sucrose overnight at 4° C., then embedded in O.C.T. Compound (4585. Fisher HealthCare). Subsequently, […] frozen sections were prepared via cryo-sectioning by a cryostat. After 1 hr blocking at room temperature, the sections were treated overnight at 4° C. with primary antibodies in antibody dilution buffer (ADB) with biotinylated LTL (1:200, B-1325, Vector), rat anti-CDH1 (1:500, ab11512, Abcam), goat anti-PODXL (1:500, AF1658, R&D Systems), as well as the antibody of interest, either mouse anti-p21 (1:200, NBP2-43697, Novus Biologicals), or rabbit anti-γH2AX (1:100, 2577, Cell Signaling) antibodies. For the optimum labeling of LTL by biotin/streptavidin interaction, the Streptavidin/Biotin Blocking Kit (SP-2002, Vector Laboratories) was applied according to the manufacturer's instructions. After washing, the samples were stained for 1 hour at RT with the nuclear dye-SYTOX Blue (1:500. S 11348, Invitrogen) and the corresponding secondary antibodies in ADB such as streptavidin-AF750 (1:500, S21384, Invitrogen), donkey anti-rat IgG-AF594 (1:500, A21209, Invitrogen), donkey anti-goat IgG-AF555 (1:500, A21432, Invitrogen), and donkey anti-rabbit IgG-AF488 (1:500, A21206, Invitrogen) for γH2AX or donkey anti-mouse IgG-AF488 (1:500, A21202, Invitrogen) for p21 antibodies as well as mouse anti-Meisl/⅔ (1:200, sc-101850, SantaCruz) conjugated antibody, and slides were mounted with Vectashield antifade mounting medium (H1000, Vector Laboratories). […]

Series [4] deals with mice with adenine diet-induced chronic kidney disease. Nature of the series: 8 week adenine diet CKD study, SK-124 versus once daily PTH injections. Format: in vivo, mouse (female CD1). To be noted: 8 weeks. As to the method: FIGS. 4A-4D. […] (A) Study design: Female CD1 mice (n=8/group) were treated with control or 0.2% adenine diet starting at […] of age along with vehicle, PTH (80 mcg/kg/d, IP injections) or SK-124 (40 mg/kg) treatment by oral gavage once daily. Mice were treated for 8 weeks. (B, C) After 8 weeks of treatment, the indicated serum analyte was measured. (D) Whole kidney RNA from the indicated groups was analyzed by RT-qPCR for the indicated fibrosis marker gene.
as §1
For studies with Ubiquitin-Cre^ERt2; Sik2^ff; Sik3^ff mice (JAX #007001 for Ubiquitin-Cre^ERt2: RRID:MGL:5905012 for Sik2 foxed mice; and Sik3^tmla(EUCOMM)Hmgu mice (RRID:MGI:5085429) bred to PGK1 FLPo mice (JAX #011065) in order to generate Sik3 foxed mice), tamoxifen was injected (1 mg, IP, Q48 hours, 3 injections total) in all animals including Cre-negative control littermates housed in cages with Pure-o′Cel bedding at 5 weeks of age. Mice were then fed on 0.2% adenine diet from 6 weeks to 9 weeks of age. Mice were fasted for 6 hours and treated with SK-124 and PTH 4 hours and 2 hours before the sacrifice. Blood and spot urine samples were collected by cheek pouch bleeding and by pipetting urine collected on hydrophobic sand (Labsand; Braintree, MA). Kidneys were immediately snap-frozen in liquid nitrogen for TRIzol (Life Technologies)-Chloroform (Fischer Scientific) based RNA isolation or protein isolation, or fixed in 10% formalin at 4C for 24 hrs for histology. All serum and urine measurements were performed using commercial bioassay detection reagents listed in Table 1, following the manufacturers' instructions. Urine protein levels were measured by Bradford assay and normalized to urine creatinine.
as §2

[5] abbreviates: whole kidney RNA, RT-qPCR, 6 weeks adenine diet.
Where [6] appears, read: SK-124 40 mg/kg oral gavage once daily, or PTH 80 mcg/kg/d IP.

On to `Nc1ncnc2nc[nH]c12` [adenine], for which, in series [1], the “fibrosis (trichrome staining)” value was “increased”. The SIK2 protein level entry in series [2] (kidney lysates, immunoblot, 0.2% adenine diet, 6 weeks) is “increased; also recorded: robust SIK2 upregulation”. Besides, in series [2] (setting [5]), the Sik1 expression entry is recorded as “increased”, the Sik2 expression result is given as “increased” and the Sik3 expression result is reported as “trends towards increased”. In series [3], the “injury markers (Col3a1, Vim, Serpine1)” value was “upregulated” and the “markers of intact proximal epithelial cells (Lrp2, Atpla1, Hnf4a) / epithelial cell integrity” value is “reduced”.
On to “PTH: Human PTH1-34, dissolved in 10 mM acetic acid”, for which the “patterns of cisplatin-induced injury” value in the series on human kidney organoids is on record as “minimal effects”. Besides, in series [4] (setting [6]), the CKD-MBD markers result was “did not cause these effects” and the kidney function entry is “did not cause these effects”. In series [4] (whole kidney RT-qPCR, SK-124 40 mg/kg oral, or PTH 80 mcg/kg/d IP), the “fibrosis marker gene expression” value was “did not cause these effects”.

(Values after patent US20260306463A1, “SIK INHIBITORS TO TREAT CHRONIC KIDNEY DISEASE” (The General Hospital Corporation, priority 2023, published 2026).)
